Data on seven compounds can be found in patent US10994015B2, “EGFR proteolysis targeting chimeric molecules and associated methods of use” (Arvinas Operations, Inc., priority 2016, dated 2021).

For one experiment, the target named is EGFR Exon 20 ASV (HeLa*) (Homo sapiens (Human), UniProt P00533, DUP767-769). Kind of experiment: EGFR protein degradation assay (Western blot). In kind it is cell-based. The conditions noted are these: 72 hours, 300 nM to 10 nM.
The target in experiment [1] is EGFR-wt (MDA-MB-231 or MCF7 or A549 or OVCAR8) (Homo sapiens (Human), UniProt P00533). In words: EGFR protein degradation assay (Western blot). The conditions noted are these: 72 hours, 300 nM to 10 nM. In kind it is cell-based. The essentials: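 Cells carrying the relevant EGFR form were plated at 300,000 per well in 6-well plates and left overnight to attach. For harvest, cells were rinsed once in ice-cold PBS and lysed in 400 μl lysis buffer containing protease inhibitors. Lysates were cleared at 10 000 rpm for 10 minutes and their protein content measured by BCA. Then 10 μg per sample was separated by SDS/PAGE at 165V for 2 hours, and EGFR was detected by ECL on a Chemidoc.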
(In general: A western blot detects proteins with antibodies after separation by electrophoresis.)

The next experiment concerns the target EGFR L858R/T790M (Homo sapiens (Human), UniProt P00533, L858R/T790M). Kind of experiment: TR-FRET assay for ERBB kinases. In kind it is biochemical. The note with it: geometric mean if measured more than once. The method, boiled down:
(§1)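 Phosphotyrosine on fluorescein poly-GluTyr was detected by Tb-pY20 antibody after EDTA quench, reading emission at 520 and 490 nm. The kinase was exposed to compound for 10 min before an ATP-containing substrate mix (3 mM ATP as added) was introduced. Turnover lasted 10 min at room temperature.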
For orientation: In TR-FRET formats the signal depends on donor and acceptor labels being close together.

The target of the next experiment is EGFR WT (Homo sapiens (Human), UniProt P00533). In words: TR-FRET assay for ERBB kinases. The note with it: geometric mean if measured more than once. In kind it is biochemical. The essentials: as §1
The target in a further experiment is EGFR L858R/T790M/C797S (Homo sapiens (Human), UniProt P00533, C797S/L858R/T790M). Kind of experiment: TR-FRET assay for ERBB kinases. The note with it: geometric mean if measured more than once. In kind it is biochemical. The method, boiled down: as §1
EGFR L858R/T790M/C797S, sequence (P00533 25-1210 T790M/C797S/L858R): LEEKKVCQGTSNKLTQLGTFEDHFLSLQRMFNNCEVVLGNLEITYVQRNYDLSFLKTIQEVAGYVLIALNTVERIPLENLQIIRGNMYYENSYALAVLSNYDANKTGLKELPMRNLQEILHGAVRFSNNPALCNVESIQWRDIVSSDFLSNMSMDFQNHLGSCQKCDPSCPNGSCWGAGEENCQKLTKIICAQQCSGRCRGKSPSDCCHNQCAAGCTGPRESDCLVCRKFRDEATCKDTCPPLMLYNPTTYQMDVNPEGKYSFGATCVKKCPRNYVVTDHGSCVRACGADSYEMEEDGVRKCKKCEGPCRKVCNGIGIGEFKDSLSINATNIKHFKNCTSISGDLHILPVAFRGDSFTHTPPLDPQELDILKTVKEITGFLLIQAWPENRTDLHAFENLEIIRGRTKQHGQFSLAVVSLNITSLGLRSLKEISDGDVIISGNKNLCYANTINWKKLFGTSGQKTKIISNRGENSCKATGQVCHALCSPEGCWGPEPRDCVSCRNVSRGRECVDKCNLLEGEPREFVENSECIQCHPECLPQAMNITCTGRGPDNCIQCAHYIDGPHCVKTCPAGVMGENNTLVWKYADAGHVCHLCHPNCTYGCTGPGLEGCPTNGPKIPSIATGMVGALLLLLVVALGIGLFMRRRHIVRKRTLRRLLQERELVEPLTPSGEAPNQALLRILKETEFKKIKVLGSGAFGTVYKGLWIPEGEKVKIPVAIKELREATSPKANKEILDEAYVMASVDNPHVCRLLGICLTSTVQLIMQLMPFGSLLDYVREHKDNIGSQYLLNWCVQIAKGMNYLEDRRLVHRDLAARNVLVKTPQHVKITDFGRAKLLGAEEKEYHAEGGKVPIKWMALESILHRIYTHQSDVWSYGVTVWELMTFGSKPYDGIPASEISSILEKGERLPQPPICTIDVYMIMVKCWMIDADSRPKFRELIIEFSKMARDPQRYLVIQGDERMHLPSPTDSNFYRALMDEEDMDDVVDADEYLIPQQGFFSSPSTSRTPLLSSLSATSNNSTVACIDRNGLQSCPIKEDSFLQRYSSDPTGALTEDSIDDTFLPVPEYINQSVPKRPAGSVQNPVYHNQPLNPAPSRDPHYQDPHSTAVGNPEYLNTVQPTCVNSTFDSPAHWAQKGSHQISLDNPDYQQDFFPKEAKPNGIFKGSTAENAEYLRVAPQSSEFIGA
Another experiment addresses EGFR Exon20NPG (Homo sapiens (Human), UniProt P00533, INS770NPG). In words: TR-FRET assay for ERBB kinases. In kind it is biochemical. The conditions noted are these: geometric mean if measured more than once. The essentials: (§2)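 Compounds pre-incubated 10 min with kinase in HEPES pH 7.5 buffer (MgCl2, DTT, Pluronic), then reaction started with substrate mix (3 mM ATP, 30 µM fluorescein-poly-GluTyr, stock levels) for 10 min at room temperature. EDTA-quenched, detected by Tb-pY20 antibody TR-FRET (520/490 nm emission).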

For the next experiment, the target named is EGFR Δ19/746/750 T790M (Homo sapiens (Human), UniProt P00533, DEL746-750/T790M). In words: TR-FRET assay for ERBB kinases. In kind it is biochemical. The conditions noted are these: geometric mean if measured more than once. The method, boiled down: as §2
For the next experiment, the target named is EGFR Δ19/746/750 (Homo sapiens (Human), UniProt P00533, DEL746-750). Kind of experiment: TR-FRET assay for ERBB kinases. In kind it is biochemical. The note with it: geometric mean if measured more than once. The essentials: as §2
For a further experiment, the target named is EGFR L858R (Homo sapiens (Human), UniProt P00533, L858R). Kind of experiment: TR-FRET assay for ERBB kinases. In kind it is biochemical. The conditions noted are these: geometric mean if measured more than once. The essentials: as §2
The next experiment deals with HER2WT (Homo sapiens (Human), UniProt P04626). In words: TR-FRET assay for ERBB kinases. The conditions noted are these: geometric mean if measured more than once. In kind it is biochemical. The method, boiled down: as §2
Experiment [2] deals with EGFR L858R/T790M double mutant (H1975) (Homo sapiens (Human), UniProt P00533, L858R/T790M). Kind of experiment: EGFR protein degradation assay (Western blot). In kind it is cell-based. The conditions noted are these: 72 hours, 300 nM to 10 nM. The method, boiled down:
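Cells carrying the relevant EGFR form were plated at 300,000 cells per well in 6-well plates and left to attach overnight. After washing in ice-cold PBS, cells were lysed in 400 μl lysis buffer with protease inhibitors, scraped, and clarified at 10 000 rpm for 10 minutes. EGFR levels were then assessed by Western blot with tubulin as loading control.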

Experiment [3] addresses EGFR L858R/T790M/C797S triple mutant (H520*) (Homo sapiens (Human), UniProt P00533, C797S/L858R/T790M). Kind of experiment: EGFR protein degradation assay (Western blot). In kind it is cell-based. The conditions noted are these: 72 hours, 300 nM to 10 nM. The essentials:
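EGFR loss in the triple-mutant line measured by immunoblot: clarified lysates normalised by BCA, run on 4-12% Bis-Tris gels, blotted to PVDF, probed with HRP anti-rabbit secondary. Before lysis, cells were dosed from 1, 0.3, 0.1, 0.03 and 0.01 mM DMSO stocks (not final concentrations) after overnight culture at 37° C.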

A further experiment concerns the target HER3 (Homo sapiens (Human), UniProt P21860). Kind of experiment: TR-FRET assay for ERBB kinases. In kind it is biochemical. The conditions noted are these: geometric mean if measured more than once.

EGFR Exon 20 ASV (HeLa*), sequence (P00533 other isoform, or with tags, fused parts or gaps dup 767-769): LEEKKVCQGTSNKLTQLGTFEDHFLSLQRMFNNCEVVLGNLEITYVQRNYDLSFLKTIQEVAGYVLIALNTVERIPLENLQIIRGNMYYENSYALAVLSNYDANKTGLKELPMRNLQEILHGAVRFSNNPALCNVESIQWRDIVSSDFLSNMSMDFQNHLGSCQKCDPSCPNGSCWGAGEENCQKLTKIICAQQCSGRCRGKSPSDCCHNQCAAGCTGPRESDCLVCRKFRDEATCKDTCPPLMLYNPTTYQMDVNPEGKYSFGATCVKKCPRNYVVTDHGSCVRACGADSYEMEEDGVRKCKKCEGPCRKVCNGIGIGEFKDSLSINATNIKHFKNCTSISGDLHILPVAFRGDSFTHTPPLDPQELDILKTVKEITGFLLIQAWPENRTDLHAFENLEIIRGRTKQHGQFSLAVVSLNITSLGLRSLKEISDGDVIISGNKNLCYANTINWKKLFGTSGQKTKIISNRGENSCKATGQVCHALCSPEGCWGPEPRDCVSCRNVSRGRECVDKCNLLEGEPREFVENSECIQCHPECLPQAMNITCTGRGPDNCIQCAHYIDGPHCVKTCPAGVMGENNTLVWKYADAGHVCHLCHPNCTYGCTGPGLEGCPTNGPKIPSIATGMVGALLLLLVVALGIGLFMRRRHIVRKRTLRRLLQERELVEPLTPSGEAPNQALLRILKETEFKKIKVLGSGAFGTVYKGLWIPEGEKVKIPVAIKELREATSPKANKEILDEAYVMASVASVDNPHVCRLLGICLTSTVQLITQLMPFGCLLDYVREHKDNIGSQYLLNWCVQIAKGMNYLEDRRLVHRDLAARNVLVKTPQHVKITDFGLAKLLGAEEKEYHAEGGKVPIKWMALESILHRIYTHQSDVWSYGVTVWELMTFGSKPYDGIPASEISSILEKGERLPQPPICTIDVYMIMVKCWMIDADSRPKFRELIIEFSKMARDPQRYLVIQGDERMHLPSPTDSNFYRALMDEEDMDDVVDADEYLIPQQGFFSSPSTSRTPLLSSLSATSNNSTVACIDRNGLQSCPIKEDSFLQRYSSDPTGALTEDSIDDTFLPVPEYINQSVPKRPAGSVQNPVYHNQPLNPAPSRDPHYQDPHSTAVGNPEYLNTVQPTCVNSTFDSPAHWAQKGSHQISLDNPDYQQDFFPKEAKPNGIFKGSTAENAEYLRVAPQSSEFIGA
EGFR L858R/T790M/C797S triple mutant (H520*), sequence (P00533 25-1210 T790M/C797S/L858R): as the sequence (P00533 25-1210 T790M/C797S/L858R) above
EGFR L858R/T790M double mutant (H1975), sequence (P00533 25-1210 T790M/L858R): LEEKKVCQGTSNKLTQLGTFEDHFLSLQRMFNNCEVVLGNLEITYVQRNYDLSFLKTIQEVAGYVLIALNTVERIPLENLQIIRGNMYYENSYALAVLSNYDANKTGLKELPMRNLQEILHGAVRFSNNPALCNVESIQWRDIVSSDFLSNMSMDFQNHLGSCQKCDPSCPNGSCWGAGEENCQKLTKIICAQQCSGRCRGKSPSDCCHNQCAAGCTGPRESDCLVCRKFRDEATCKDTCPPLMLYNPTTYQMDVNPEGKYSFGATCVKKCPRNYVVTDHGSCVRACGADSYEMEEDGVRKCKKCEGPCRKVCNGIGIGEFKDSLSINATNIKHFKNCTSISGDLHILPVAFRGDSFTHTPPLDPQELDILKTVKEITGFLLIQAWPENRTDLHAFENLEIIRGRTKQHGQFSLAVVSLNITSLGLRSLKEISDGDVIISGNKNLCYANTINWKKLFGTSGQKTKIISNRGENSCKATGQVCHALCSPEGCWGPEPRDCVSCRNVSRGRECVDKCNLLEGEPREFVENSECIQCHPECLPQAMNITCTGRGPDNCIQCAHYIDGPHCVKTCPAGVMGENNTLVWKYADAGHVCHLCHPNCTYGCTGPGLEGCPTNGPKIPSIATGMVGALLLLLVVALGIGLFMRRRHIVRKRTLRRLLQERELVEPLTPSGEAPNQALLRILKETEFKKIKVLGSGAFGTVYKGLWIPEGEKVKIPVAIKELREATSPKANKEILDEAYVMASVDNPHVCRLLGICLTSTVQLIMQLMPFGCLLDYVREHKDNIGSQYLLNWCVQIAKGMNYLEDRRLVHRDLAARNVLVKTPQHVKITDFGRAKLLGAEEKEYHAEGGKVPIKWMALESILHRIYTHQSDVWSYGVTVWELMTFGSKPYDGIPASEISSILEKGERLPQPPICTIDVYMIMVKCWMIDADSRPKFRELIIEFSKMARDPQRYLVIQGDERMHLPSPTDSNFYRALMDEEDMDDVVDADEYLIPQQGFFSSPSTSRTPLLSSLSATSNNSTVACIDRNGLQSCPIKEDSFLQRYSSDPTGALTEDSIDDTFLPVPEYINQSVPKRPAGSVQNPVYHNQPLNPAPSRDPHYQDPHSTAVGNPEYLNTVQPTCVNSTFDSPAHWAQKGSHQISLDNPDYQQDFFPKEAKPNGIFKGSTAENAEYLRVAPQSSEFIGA

The IC50 is the concentration that gives 50% inhibition. For `O=C1CCC(N2C(=O)c3cccc(NCCOCCOCCN4CCN(Cc5ccc(-c6cc7c(NCc8ccccc8Cl)ncnc7[nH]6)cc5)CC4)c3C2=O)C(=O)N1` (stereo not drawn) [compound 9], the “EGFR protein remaining, EGFR Exon 20 ASV” value at EGFR Exon 20 ASV (HeLa*) is “C (>80% EGFR protein remaining after 72 hours of incubation with the test compound at a concentration of 300 nM)”. Further, the “EGFR protein remaining, EGFR-wt” value in experiment [1] is on record as “C (>80% EGFR protein remaining after 72 hours of incubation with the test compound at a concentration of 300 nM)”. Further, the IC50 on EGFR L858R/T790M was 6.8 µM; on EGFR WT, 0.027 µM; at EGFR L858R/T790M/C797S, 3.1 µM; on EGFR Exon20NPG, 0.26 µM; on EGFR Δ19/746/750 T790M it was 3.9 µM; at EGFR Δ19/746/750, 0.0019 µM. The IC50 stood at 0.0049 µM on EGFR L858R and 0.59 µM on HER2WT.

As for `COC1CCN(c2nccc(Nc3cc4c(cn3)nc(COCCN3CCN(CCOc5ccc6c(c5)C(=O)N(C5CCC(=O)NC5=O)C6=O)CC3)n4C(C)C)n2)CC1` (stereo not drawn) [Example 76, 2-(2,6-dioxopiperidin-3-yl)-5-(2-(4-(2-((1-isopropyl-6-((2-(4-methoxypiperidin-1-yl)pyrimidin-4-yl)amino)-1H-imidazo[4,5-c]pyridin-2-yl)methoxy)ethyl)piperazin-1-yl)ethoxy)isoindoline-1,3-dione], the “EGFR protein remaining, EGFR L858R/T790M double mutant” value in experiment [2] is “C (>80% EGFR protein remaining after 72 hours of incubation with the test compound at a concentration of 300 nM)”. For the same compound, in experiment [3], the “EGFR protein remaining, EGFR L858R/T790M/C797S triple mutant” value is recorded as “C (>80% EGFR protein remaining after 72 hours of incubation with the test compound at a concentration of 300 nM)”. In addition, the IC50 was 0.36 µM on EGFR L858R/T790M; 17 µM on EGFR WT; 0.036 µM on EGFR L858R/T790M/C797S; 8.6 µM against HER3; 14 µM on EGFR Exon20NPG.

In the case of `Cc1ncsc1-c1ccc(CNC(=O)[C@@H]2C[C@@H](O)CN2C(=O)[C@@H](NC(=O)CCCCCOCCCCOCCCCOc2cc3ncnc(Nc4ccc(F)c(Cl)c4)c3cc2NC(=O)/C=C/CN(C)C)C(C)(C)C)cc1` [Example 66, (2S,4R)-1-((S)-2-(6-(4-(4-((4-((3-chloro-4-fluorophenyl)amino)-6-((E)-4-(dimethylamino)but-2-enamido)quinazolin-7-yl)oxy)butoxy)butoxy)hexanamido)-3,3-dimethylbutanoyl)-4-hydroxy-N-(4-(4-methylthiazol-5-yl)benzyl)pyrrolidine-2-carboxamide], the “EGFR protein remaining, EGFR Exon 20 ASV” value on EGFR Exon 20 ASV (HeLa*) is “B (≤80% and >50% EGFR protein remaining after 72 hours of incubation with the test compound at a concentration between 300 nM and 10 nM)”. For the same compound, the “EGFR protein remaining, EGFR L858R/T790M double mutant” value in [2] was “A (≤50% EGFR protein remaining after 72 hours of incubation with the test compound at a concentration between 300 nM and 10 nM)”. Also, the “EGFR protein remaining, EGFR-wt” value in experiment [1] was “A (≤50% EGFR protein remaining after 72 hours of incubation with the test compound at a concentration between 300 nM and 10 nM)”. In addition, the “EGFR protein remaining, EGFR L858R/T790M/C797S triple mutant” value in experiment [3] is “C (>80% EGFR protein remaining after 72 hours of incubation with the test compound at a concentration of 300 nM)”. Moreover, at HER3, the IC50 amounted to 6.6 µM.

Consider `COC1(CCN2CCN(c3ccc4c(c3)C(=O)N(C3CCC(=O)NC3=O)C4=O)CC2)CCN(c2nccc(Nc3cc4c(cn3)nc(C)n4C(C)C)n2)CC1` (stereo not drawn) [Example 78, 2-(2,6-dioxopiperidin-3-yl)-5-(4-(2-(1-(4-((1-isopropyl-2-methyl-1H-imidazo[4,5-c]pyridin-6-yl)amino)pyrimidin-2-yl)-4-methoxypiperidin-4-yl)ethyl)piperazin-1-yl)isoindoline-1,3-dione], for which the “EGFR protein remaining, EGFR L858R/T790M double mutant” value in [2] is reported as “C (>80% EGFR protein remaining after 72 hours of incubation with the test compound at a concentration of 300 nM)”. The “EGFR protein remaining, EGFR L858R/T790M/C797S triple mutant” value in experiment [3] was “C (>80% EGFR protein remaining after 72 hours of incubation with the test compound at a concentration of 300 nM)”. The IC50 stood at 0.25 µM at EGFR L858R/T790M; 5.7 µM at EGFR WT; 0.025 µM at EGFR L858R/T790M/C797S; 25 µM on HER3; 5.6 µM on EGFR Exon20NPG.

As for `Cc1ncsc1-c1ccc([C@H](C)NC(=O)[C@H]2C[C@H](O)CN2C(=O)[C@@H](NC(=O)CN2CCN(CCCOCC#Cc3cccc4c3C(=O)N(C(C(=O)Nc3nccs3)c3cc(F)ccc3O)C4)CC2)C(C)(C)C)cc1` (stereo partly drawn) [compound 90], the “EGFR protein remaining, EGFR L858R/T790M double mutant” value in experiment [2] was “C (>80% EGFR protein remaining after 72 hours of incubation with the test compound at a concentration of 300 nM)”. Besides, the “EGFR protein remaining, EGFR L858R/T790M/C797S triple mutant” value in experiment [3] is “C (>80% EGFR protein remaining after 72 hours of incubation with the test compound at a concentration of 300 nM)”. The IC50 is 0.74 µM on EGFR L858R/T790M; 1.3 µM on EGFR WT; 0.69 µM at EGFR L858R/T790M/C797S; 29 µM at HER3; 3.4 µM on EGFR Exon20NPG.

As for `Cc1ncsc1-c1ccc(CNC(=O)[C@@H]2C[C@@H](O)CN2C(=O)[C@@H](NC(=O)COCCOCCOc2ccc(-c3ccc4ncnc(Nc5ccc(OCc6cccc(F)c6)c(Cl)c5)c4c3)cc2)C(C)(C)C)cc1` [Example 97, (2S,4R)-1-((S)-2-(2-(2-(2-(4-(4-((3-Chloro-4-((3-fluorobenzyl)oxy)phenyl)amino)quinazolin-6-yl)phenoxy)ethoxy)ethoxy)acetamido)-3,3-dimethylbutanoyl)-4-hydroxy-N-(4-(4-methylthiazol-5-yl)benzyl)pyrrolidine-2-carboxamide], the “EGFR protein remaining, EGFR Exon 20 ASV” value at EGFR Exon 20 ASV (HeLa*) was “A (≤50% EGFR protein remaining after 72 hours of incubation with the test compound at a concentration between 300 nM and 10 nM)”. For the same compound, in experiment [2], the “EGFR protein remaining, EGFR L858R/T790M double mutant” value is “B (≤80% and >50% EGFR protein remaining after 72 hours of incubation with the test compound at a concentration between 300 nM and 10 nM)”. Moreover, the “EGFR protein remaining, EGFR-wt” value in experiment [1] is “A (≤50% EGFR protein remaining after 72 hours of incubation with the test compound at a concentration between 300 nM and 10 nM)”. For the same compound, the IC50 was over 30 µM at EGFR L858R/T790M; 1.5 µM on EGFR WT; over 30 µM on EGFR L858R/T790M/C797S; 29 µM at HER3; over 30 µM at EGFR Exon20NPG.

Take `Cc1ncsc1-c1ccc([C@H](C)NC(=O)[C@@H]2C[C@@H](O)CN2C(=O)[C@@H](NC(=O)CN2CCN(CCCC#Cc3cccc4c3C(=O)N(C(C(=O)Nc3nccs3)c3cc(F)ccc3O)C4)CC2)C(C)(C)C)cc1` (stereo partly drawn) [Example 80, (2S,4R)-1-((2S)-2-(2-(4-(5-(2-(1-(5-fluoro-2-hydroxyphenyl)-2-oxo-2-(thiazol-2-ylamino)ethyl)-3-oxoisoindolin-4-yl)pent-4-yn-1-yl)piperazin-1-yl)acetamido)-3,3-dimethylbutanoyl)-4-hydroxy-N—((S)-1-(4-(4-methylthiazol-5-yl)phenyl)ethyl)pyrrolidine-2-carboxamide]: the “EGFR protein remaining, EGFR L858R/T790M double mutant” value in experiment [2] was “C (>80% EGFR protein remaining after 72 hours of incubation with the test compound at a concentration of 300 nM)”. Besides, the “EGFR protein remaining, EGFR L858R/T790M/C797S triple mutant” value in [3] is “C (>80% EGFR protein remaining after 72 hours of incubation with the test compound at a concentration of 300 nM)”. Also, the IC50 on EGFR L858R/T790M is 4.7 µM; on EGFR WT, 4.7 µM; on EGFR L858R/T790M/C797S, 2.2 µM; against HER3, over 30 µM; at EGFR Exon20NPG it was 13 µM.
